Data: ChEMBL document CHEMBL5500344, “Design, synthesis and biological evaluation of matrine contains benzimidazole derivatives as dual TOPOI and PARP inhibitors for cancer therapy” (Eur J Med Chem, 2024)
Active and inactive are the calls of the source. The calls are words filed in the database; no cut-off is given here.

Key:
[1] = test system: HGC-27; test: Antiproliferative activity against human HGC-27 cells assessed as inhibition of cell growth incubated for 48 hrs by MTT assay; assay type: functional, cell-based; conditions: HGC-27, 48 h
[2] = test system: L02; test: Antiproliferative activity against human L02 cells assessed as inhibition of cell growth incubated for 48 hrs by MTT assay; assay type: functional, cell-based; conditions: L02, 48 h
[3] = biological target: T1, DNA topoisomerase 1 (Homo sapiens) (UniProt P11387); test: Inhibition of human topoisomerase 1 assessed as relaxation of supercoiled pBR322 plasmid DNA at 100 uM incubated for 10 to 15 mins by EtBr staining based agarose gel electrophoresis method; conditions: time 10-15 min
T1 sequence (whole entry): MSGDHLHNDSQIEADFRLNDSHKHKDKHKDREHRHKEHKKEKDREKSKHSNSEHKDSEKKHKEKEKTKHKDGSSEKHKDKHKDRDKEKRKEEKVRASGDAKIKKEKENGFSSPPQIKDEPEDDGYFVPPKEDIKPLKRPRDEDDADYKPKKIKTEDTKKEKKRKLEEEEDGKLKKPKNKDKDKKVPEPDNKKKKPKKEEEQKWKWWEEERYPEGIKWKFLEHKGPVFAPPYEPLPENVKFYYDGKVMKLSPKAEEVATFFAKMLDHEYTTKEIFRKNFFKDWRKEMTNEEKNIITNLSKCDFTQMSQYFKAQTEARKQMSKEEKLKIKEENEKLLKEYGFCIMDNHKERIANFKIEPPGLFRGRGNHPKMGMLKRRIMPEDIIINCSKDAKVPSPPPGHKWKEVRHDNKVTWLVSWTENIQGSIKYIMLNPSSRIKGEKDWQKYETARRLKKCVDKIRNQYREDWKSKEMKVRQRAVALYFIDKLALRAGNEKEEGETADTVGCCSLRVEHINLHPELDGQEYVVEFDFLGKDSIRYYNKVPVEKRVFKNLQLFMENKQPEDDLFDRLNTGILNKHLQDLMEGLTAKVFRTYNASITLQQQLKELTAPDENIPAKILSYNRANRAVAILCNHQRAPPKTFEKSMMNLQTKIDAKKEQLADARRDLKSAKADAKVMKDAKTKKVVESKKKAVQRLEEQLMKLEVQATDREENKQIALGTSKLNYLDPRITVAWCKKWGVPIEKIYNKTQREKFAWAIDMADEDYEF

[4] = test system: HeLa; test: Antiproliferative activity against human HeLa cells assessed as inhibition of cell growth incubated for 48 hrs by MTT assay; assay type: functional, cell-based
[5] = biological target: Poly [ADP-ribose] polymerase 1 (Homo sapiens, UniProt P09874); test: Inhibition of PARP-1 (unknown origin) incubated for 70 mins by HT universal chemiluminescent assay
Chain of Poly [ADP-ribose] polymerase 1 (P09874 whole entry): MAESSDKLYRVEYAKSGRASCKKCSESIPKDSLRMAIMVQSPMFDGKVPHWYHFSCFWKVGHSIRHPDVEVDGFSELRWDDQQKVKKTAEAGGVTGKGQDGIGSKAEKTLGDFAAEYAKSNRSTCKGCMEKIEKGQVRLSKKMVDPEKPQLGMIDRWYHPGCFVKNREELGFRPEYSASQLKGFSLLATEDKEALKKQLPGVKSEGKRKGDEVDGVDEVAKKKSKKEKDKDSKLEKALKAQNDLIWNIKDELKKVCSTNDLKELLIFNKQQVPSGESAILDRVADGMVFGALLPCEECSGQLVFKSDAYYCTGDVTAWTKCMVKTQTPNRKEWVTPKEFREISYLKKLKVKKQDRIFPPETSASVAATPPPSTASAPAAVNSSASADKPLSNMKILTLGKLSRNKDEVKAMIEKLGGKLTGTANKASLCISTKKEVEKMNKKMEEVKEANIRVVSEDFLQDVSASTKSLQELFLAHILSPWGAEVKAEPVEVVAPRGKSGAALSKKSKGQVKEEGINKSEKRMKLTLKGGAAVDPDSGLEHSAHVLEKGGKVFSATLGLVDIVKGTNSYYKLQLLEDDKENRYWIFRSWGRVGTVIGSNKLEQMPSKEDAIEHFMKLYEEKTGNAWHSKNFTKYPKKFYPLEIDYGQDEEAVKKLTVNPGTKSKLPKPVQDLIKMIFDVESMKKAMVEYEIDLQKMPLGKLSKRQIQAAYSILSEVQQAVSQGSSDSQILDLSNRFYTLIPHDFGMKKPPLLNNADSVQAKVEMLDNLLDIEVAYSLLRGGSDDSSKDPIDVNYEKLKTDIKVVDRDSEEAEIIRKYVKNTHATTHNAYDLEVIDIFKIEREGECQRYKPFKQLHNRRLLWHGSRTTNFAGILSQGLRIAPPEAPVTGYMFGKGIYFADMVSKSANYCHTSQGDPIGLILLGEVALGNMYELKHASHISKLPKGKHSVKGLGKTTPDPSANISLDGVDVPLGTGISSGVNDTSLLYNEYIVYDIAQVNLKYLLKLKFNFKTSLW

[6] = test system: A549; test: Antiproliferative activity against human A549 cells assessed as inhibition of cell growth incubated for 48 hrs by MTT assay; assay type: functional, cell-based; conditions: A549, 48 h
[7] = test system: HepG2; test: Antiproliferative activity against human HepG2 cells assessed as inhibition of cell growth incubated for 48 hrs by MTT assay; assay type: functional, cell-based; conditions: HepG2, 48 h
[8] = Acute toxicity in BALB/c mouse xenografted with human HGC-27 cells assessed as increase in connective tissue proliferation of kidney at 40 mg/kg,ip administrated every other day for 17 days by hematoxylin and eosin staining method; assay type: organism-based; conditions: in vivo, 408 h, time 17 day
[9] = Acute toxicity in BALB/c mouse xenografted with human HGC-27 cells assessed as increase in mucin secretion of lung at 40 mg/kg,ip administrated every other day for 17 days by hematoxylin and eosin staining method; assay type: organism-based; conditions: in vivo, 408 h, time 17 day
[10] = test system: HGC-27; test: Antitumor activity against human HGC-27 cells xenografted in BALB/c mouse assessed as tumor growth inhibition at 40 mg/kg,ip administrated every other day for 17 days relative to control; assay type: functional; conditions: HGC-27, 408 h, time 17 day, read-out: TGI
[11] = Acute toxicity in BALB/c mouse xenografted with human HGC-27 cells assessed as change in body weight at 40 mg/kg,ip administrated every other day for 17 days; assay type: organism-based; conditions: in vivo, 408 h, time 17 day
[12] = Acute toxicity in BALB/c mouse xenografted with human HGC-27 cells assessed as venous congestion in spleen at 40 mg/kg,ip administrated every other day for 17 days by hematoxylin and eosin staining method; assay type: organism-based; conditions: in vivo, 408 h, time 17 day
[13] = test system: HGC-27; test: Induction of apoptosis in human HGC-27 cells assessed as early apoptotic cells at 1.25 uM incubated for 24 hrs by annexin V-FITC/PI satining based flow cytometry (reference value: 4.2 %); assay type: functional
[14] = test system: HGC-27; test: Induction of cell cycle arrest in human HGC-27 cells assessed as accumulation of cells at G0/G1 phase at 1.25 uM incubated for 48 hrs by flow cytometry relative to control; assay type: functional
[15] = test system: HGC-27; test: Induction of apoptosis in human HGC-27 cells assessed as viable cells at 5 uM incubated for 24 hrs by annexin V-FITC/PI satining based flow cytometry (reference value: 95.3 %); assay type: functional; conditions: read-out: Activity
[16] = test system: HGC-27; test: Induction of apoptosis in human HGC-27 cells assessed as late apoptotic cells at 1.25 uM incubated for 24 hrs by annexin V-FITC/PI satining based flow cytometry (reference value: 0.32 %); assay type: functional
[17] = test system: HGC-27; test: Induction of apoptosis in human HGC-27 cells at 1.25 uM incubated for 24 hrs by annexin V-FITC/PI satining based flow cytometry relative to control; assay type: functional
[18] = test system: HGC-27; test: Induction of apoptosis in human HGC-27 cells assessed as downregulation of PARP expression incubated for 48 hrs by Western blotting analysis; assay type: functional, cell-based
[19] = test system: HGC-27; test: Induction of apoptosis in human HGC-27 cells assessed as upregulation of Bax expression incubated for 48 hrs by Western blotting analysis; assay type: functional, cell-based
[20] = test system: HGC-27; test: Induction of apoptosis in human HGC-27 cells assessed as necrotic cells at 1.25 uM incubated for 24 hrs by annexin V-FITC/PI satining based flow cytometry (reference value: 0.13 %); assay type: functional
[21] = test system: HGC-27; test: Induction of apoptosis in human HGC-27 cells at 2.5 uM incubated for 24 hrs by annexin V-FITC/PI satining based flow cytometry relative to control; assay type: functional
[22] = test system: HGC-27; test: Induction of DNA damage in human HGC-27 cells assessed as upregulation of gamma-H2AX expression incubated for 48 hrs by Western blotting analysis; assay type: functional, cell-based
[23] = test system: HGC-27; test: Inhibition of cell migration in human HGC-27 cells incubated upto 72 hrs by scratch wound healing based microscopic analysis; assay type: functional
[24] = test system: HGC-27; test: Induction of apoptosis in human HGC-27 cells assessed as early apoptotic cells at 5 uM incubated for 24 hrs by annexin V-FITC/PI satining based flow cytometry (reference value: 4.2 %); assay type: functional
[25] = test system: HGC-27; test: Induction of cell cycle arrest in human HGC-27 cells assessed as accumulation of cells at G0/G1 phase at 2.5 uM incubated for 48 hrs by flow cytometry relative to control; assay type: functional
[26] = test system: HGC-27; test: Induction of apoptosis in human HGC-27 cells at 5 uM incubated for 24 hrs by annexin V-FITC/PI satining based flow cytometry relative to control; assay type: functional
[27] = test system: HGC-27; test: Inhibition of colony formation in human HGC-27 cells incubated for 48 hrs by crystal violet staining based microscopic analysis; assay type: functional, cell-based
[28] = biological target: T1, DNA topoisomerase 1 (Homo sapiens); test: Inhibition of human topoisomerase 1 assessed as relaxation of supercoiled pBR322 plasmid DNA incubated for 10 to 15 mins by EtBr staining based agarose gel electrophoresis method; conditions: time 10-15 min
[29] = test system: HGC-27; test: Induction of apoptosis in human HGC-27 cells assessed as upregulation of caspase-3 expression incubated for 48 hrs by Western blotting analysis; assay type: functional, cell-based
[30] = test system: HGC-27; test: Induction of apoptosis in human HGC-27 cells assessed as necrotic cells at 2.5 uM incubated for 24 hrs by annexin V-FITC/PI satining based flow cytometry (reference value: 0.13 %); assay type: functional
[31] = test system: HGC-27; test: Induction of DNA damage in human HGC-27 cells assessed as upregulation of p53 phoshorylation incubated for 48 hrs by Western blotting analysis; assay type: functional, cell-based
[32] = test system: HGC-27; test: Induction of DNA damage in human HGC-27 cells assessed as upregulation of p53 expression incubated for 48 hrs by Western blotting analysis; assay type: functional, cell-based
[33] = test system: HGC-27; test: Induction of apoptosis in human HGC-27 cells assessed as late apoptotic cells at 5 uM incubated for 24 hrs by annexin V-FITC/PI satining based flow cytometry (reference value: 0.32 %); assay type: functional
[34] = test system: HGC-27; test: Induction of apoptosis in human HGC-27 cells assessed as viable cells at 2.5 uM incubated for 24 hrs by annexin V-FITC/PI satining based flow cytometry (reference value: 95.3 %); assay type: functional; conditions: read-out: Activity
[35] = test system: HGC-27; test: Induction of apoptosis in human HGC-27 cells assessed as downregulation of Bcl-2 expression incubated for 48 hrs by Western blotting analysis; assay type: functional, cell-based
[36] = test system: HGC-27; test: Induction of apoptosis in human HGC-27 cells assessed as necrotic cells at 5 uM incubated for 24 hrs by annexin V-FITC/PI satining based flow cytometry (reference value: 0.13 %); assay type: functional
[37] = test system: HGC-27; test: Induction of cell cycle arrest in human HGC-27 cells assessed as accumulation of cells at G0/G1 phase at 5 uM incubated for 48 hrs by flow cytometry relative to control; assay type: functional
[38] = test system: HGC-27; test: Induction of apoptosis in human HGC-27 cells assessed as upregulation of cleaved PARP expression incubated for 48 hrs by Western blotting analysis; assay type: functional, cell-based
[39] = test system: HGC-27; test: Induction of apoptosis in human HGC-27 cells assessed as upregulation of cleaved caspase-3 expression incubated for 48 hrs by Western blotting analysis; assay type: functional, cell-based
[40] = test system: HGC-27; test: Induction of apoptosis in human HGC-27 cells assessed as viable cells at 1.25 uM incubated for 24 hrs by annexin V-FITC/PI satining based flow cytometry (reference value: 95.3 %); assay type: functional; conditions: read-out: Activity
[41] = test system: HGC-27; test: Induction of apoptosis in human HGC-27 cells assessed as late apoptotic cells at 2.5 uM incubated for 24 hrs by annexin V-FITC/PI satining based flow cytometry (reference value: 0.32 %); assay type: functional
[42] = test system: HGC-27; test: Induction of apoptosis in human HGC-27 cells assessed as early apoptotic cells at 2.5 uM incubated for 24 hrs by annexin V-FITC/PI satining based flow cytometry (reference value: 4.2 %); assay type: functional
[43] = Acute toxicity in BALB/c mouse xenografted with human HGC-27 cells assessed as venous congestion in liver at 40 mg/kg,ip administrated every other day for 17 days by hematoxylin and eosin staining method; assay type: organism-based; conditions: in vivo, 408 h, time 17 day

In the case of O=C(OCC1c2ccccc2-c2ccccc21)N1C[C@@H]2CCCN3CCC[C@@H]([C@H]23)[C@H]1CCCc1nc2cc(Cl)c(Cl)cc2[nH]1, the IC50 ([1]; read-out: IC50) is reported as 9.78 µM, the IC50 [2] is reported as greater than 64 µM and the inhibition [3] is reported as “Active”. The IC50 [4] was 8.46 µM, the IC50 [5] was 0.28 µM and the IC50 [6] was 13.2 µM. The IC50 [7] was 10.8 µM.
For CCc1c2c(nc3ccc(OC(=O)N4CCC(N5CCCCC5)CC4)cc13)-c1cc3c(c(=O)n1C2)COC(=O)[C@]3(O)CC [IRINOTECAN], the IC50 [1] was 7.01 µM, the Activity [8] was “Toxic” and the Activity [9] was “Toxic”. The inhibition in vivo at 40 mg/kg [10] was 87%, the IC50 [4] was 13.2 µM and the Activity [11] was “Toxic”. The IC50 [6] was 6.13 µM, the Activity [12] was “Toxic” and the IC50 [7] was 10.8 µM.
Compound O=C(OCC1c2ccccc2-c2ccccc21)N1C[C@@H]2CCCN3CCC[C@@H]([C@H]23)[C@H]1CCCc1nc2cc(Br)c(Br)cc2[nH]1 has an IC50 ([1]; read-out: IC50) of 2.49 µM, an Activity [13] of 17.2% and an IC50 [2] greater than 64 µM. For the same compound, the Activity [14] was 66%, the viability at 5 µM [15] was 18.1% and the Activity [16] was 1.79%. For the same compound, the Activity [17] was 15.5%, the inhibition in vivo at 40 mg/kg [10] was 75.4% and the Activity [18] was “Dose-Dependent Effect”. For the same compound, the Activity [19] was “Dose-Dependent Effect”, the Activity [20] was 0.37% and the Activity [21] was 43.1%. The Activity [22] was “Dose-Dependent Effect”, the inhibition [23] was “Dose-Dependent Effect” and the IC50 [4] was 7.21 µM. For the same compound, the IC50 [5] was 0.09 µM, the Activity [11] was “Toxic” and the IC50 [6] was 9.48 µM. For the same compound, the Activity [24] was 72.5%, the Activity [25] was 70% and the Activity [26] was 76%. For the same compound, the inhibition [27] was “Dose-Dependent Effect”, the inhibition [28] was “Dose-Dependent Effect” and the Activity [29] was “Dose-Dependent Effect”. For the same compound, the Activity [30] was 0.6%, the Activity [31] was “Dose-Dependent Effect” and the Activity [32] was “Dose-Dependent Effect”. For the same compound, the Activity [33] was 8.01%, the viability at 2.5 µM [34] was 51.7% and the Activity [35] was “Dose-Dependent Effect”. The Activity [36] was 1.42%, the Activity [37] was 74% and the Activity [38] was “Dose-Dependent Effect”. The Activity [39] was “Dose-Dependent Effect”, the IC50 [7] was 3.8 µM and the viability at 1.25 µM [40] was 80.7%. It also gave an Activity [41] of 7% and an Activity [42] of 40.6%.
In the case of O=C1CCC[C@@H]2[C@H]3CCCN4CCC[C@@H](CN12)[C@@H]34 [MATRINE], the IC50 ([1]; read-out: IC50) is reported as 4180 µM, the Activity [43] is reported as “Toxic” and the inhibition in vivo at 40 mg/kg [10] is reported as 9.7%. The IC50 [4] was 6750 µM, the Activity [11] was “Toxic” and the IC50 [6] was 5880 µM. The Activity [12] was “Toxic” and the IC50 [7] was 4360 µM.
